Experimental data taken from patent US6303317A, “Peptide probes and methods for making the same” (The Regents of the University of California, priority 1998, dated 2001).
Where no end group is shown, it is not given here.

Test system: APC protein
Assay: Precipitation of APC from human colon cancer cell line lysates with biotinylated probe and streptavidin particles
Format: binding
Conditions: Western blot with APC antibody
Experimental: Precipitation experiments were carried out in order to determine whether the anti-APCp1 polypeptide probe was capable of detecting the low in vivo levels of APC which are typically present in normal and tumor cells. FIG. 7 is a schematic representation of the strategy used. Briefly, cell lines which produce a normal (i.e., full length human APC) and mutant (i.e., truncated human APC) were lysed, and the lysate combined with either biotinylated […] or biotinylated anti-APC monoclonal antibody. Molecules bound to the biotinylated probes were collected by binding to streptavidin, and the bound molecules released from the beads followed by SDS-PAGE, blotting of the gels, and detection with a biotinylated APC antibody. […] was detected on X-ray film. These steps are elaborated in more detail as follows.
Cells were harvested at 90-100% confluency. Cells were washed twice with ice-cold Dulbecco's phosphate buffered saline (Gibco BRL) containing magnesium chloride and calcium chloride, scraped into 15 mL ice cold D-PBS and pelleted in a Beckman J-6 centrifuge for 5 minutes at 4° C. The cell pellet was resuspended in 1 mL ice-cold phosphate buffer, pH 8, containing 0.2% NP-40, 400 μg/mL of Pefabloc SC (Boehringer Mannheim) and 10 μg/mL each of leupeptin, pepstatin, and aprotinin. […]

Sequence of APC protein (P25054 2-55 limits assumed): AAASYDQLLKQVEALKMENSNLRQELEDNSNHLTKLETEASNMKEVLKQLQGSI

For “biotinylated-anti-APCp1: N-terminally biotinylated anti-APCp1 with Met, an additional Leu8Val mutation and Glu-Asp-Glu at the C-terminus (MAAKGDQVKKEVEALEYENSNLRKKLEDHKKKLTKLKTEISNAKKMLKQLYASIEDE; not fully specified (N-terminus); also: biotin attached via a long spacer arm)”, the “binding to / precipitation of wild-type and mutant APC at endogenous cell concentrations” value was “precipitated truncation mutants and full-length APC at endogenous cell concentrations”.
